From ChEMBL document CHEMBL1122067, “Species- or isozyme-specific enzyme inhibitors. 4. Design of a two-site inhibitor of adenylate kinase with isozyme selectivity” (J Med Chem, 1982)
pKi: −log10 of the molar value. Where “and” joins values, the source holds several entries; their conditions need not be identical. Equal entries are not always repeated. One block for each compound: values may come before it.

What was measured:
[1] = molecular target: T1, Adenylate kinase 2, mitochondrial (Rattus norvegicus, UniProt P29410); experiment: Competitive binding inhibition constant(Ki) of rat adenylate kinase (AK II) isozymes was determined
[2] = molecular target: T2, GTP:AMP phosphotransferase AK3, mitochondrial (Rattus norvegicus, UniProt P29411); experiment: Competitive binding inhibition constant of rat Adenylate kinase III was determined
[3] = Non-competitive binding inhibition constant(Ki) of rat adenylate kinase (AK) isozymes was determined
[4] = molecular target: T1, Adenylate kinase 2, mitochondrial; experiment: Ability to inhibit the rat muscle adenylate kinase(AK II) isozyme in competition with the AMP varied; conditions: in the assay text read “rat liver” for “rat muscle”
[5] = molecular target: T1, Adenylate kinase 2, mitochondrial; experiment: Ability to inhibit the rat muscle adenylate kinase(AK II) isozyme in competition with the ATP varied; conditions: in the assay text read “rat liver” for “rat muscle”
[6] = Ability to inhibit the rat muscle adenylate kinase isozyme in competition with the AMP varied
[7] = molecular target: T2, GTP:AMP phosphotransferase AK3, mitochondrial; experiment: Ability to inhibit the rat muscle adenylate kinase lII in competition with the AMP varied; conditions: in the assay text read “rat liver adenylate kinase III” for “rat muscle adenylate kinase lII”
[8] = Ability to inhibit the rat muscle adenylate kinase isozyme in competition with the ATP varied
[9] = molecular target: T1, Adenylate kinase 2, mitochondrial; experiment: Ability to inhibit the rat muscle adenylate kinase (AK II) isozyme in competition with the AMP varied; conditions: in the assay text read “rat liver” for “rat muscle”
[10] = molecular target: T1, Adenylate kinase 2, mitochondrial; experiment: Ability to inhibit the rat muscle adenylate kinase (AK II) isozyme in competition with the ATP varied; conditions: in the assay text read “rat liver” for “rat muscle”
[11] = Non-competitive binding inhibition constant (Ki) of rat adenylate kinase (AK) isozymes was determined
[12] = molecular target: T2, GTP:AMP phosphotransferase AK3, mitochondrial; experiment: Competitive binding inhibition constant of rat adenylate kinase IIl was determined
[13] = molecular target: T2, GTP:AMP phosphotransferase AK3, mitochondrial; experiment: Non competitive binding inhibition constant of rat aAdenylate kinase III was determined
[14] = Non competitive binding inhibition constant(Ki) of rat adenylate kinase (AK) isozymes was determined
[15] = molecular target: T1, Adenylate kinase 2, mitochondrial; experiment: Non competitive binding inhibition constant (Ki) of rat adenylate kinase (AK II) isozymes was determined
[16] = Competitive binding inhibition constant (Ki) of rat adenylate kinase (AK) isozymes was determined
[17] = Non competitive binding inhibition constant (Ki) of rat adenylate kinase (AK) isozymes was determined
[18] = molecular target: T2, GTP:AMP phosphotransferase AK3, mitochondrial; experiment: Non competitive binding inhibition of rat adenylate kinase IIl was determined

T2 sequence (P29411 whole entry): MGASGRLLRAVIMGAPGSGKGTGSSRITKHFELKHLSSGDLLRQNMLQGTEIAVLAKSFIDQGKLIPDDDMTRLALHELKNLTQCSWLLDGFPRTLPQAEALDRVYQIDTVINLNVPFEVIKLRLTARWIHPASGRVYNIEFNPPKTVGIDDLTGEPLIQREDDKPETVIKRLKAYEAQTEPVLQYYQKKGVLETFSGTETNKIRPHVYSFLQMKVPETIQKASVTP

SMILES: CCCSc1nc2c(N)ncnc2n1[C@@H]1O[C@H](COP(=O)(O)OP(=O)(O)OP(=O)(O)O)[C@@H](O)[C@H]1O
pKi [1]: 4.22
pKi [2]: 4.15
pKi [3]: 2.21

SMILES: CC(=O)NCCNc1ncnc2c1ncn2C1O[C@H](COP(=O)(O)O)[C@@H](O)[C@H]1O (some centres not stated)
pKi [13]: 1.91
pKi [14]: 2.51
pKi [15]: 1.94

SMILES: CCCCN(CCCC)c1ncnc2c1ncn2C1O[C@H](COP(=O)(O)OP(=O)(O)OP(=O)(O)O)[C@@H](O)[C@H]1O (some centres not stated)
pKi [2]: 2.52
pKi [16]: 2.70

SMILES: CC(=O)NCCCCCCCCNc1ncnc2c1ncn2C1O[C@H](COP(=O)(O)O)[C@@H](O)[C@H]1O (some centres not stated)
pKi [17]: 2.32
pKi [15]: 1.90
pKi [18]: 1.85

Results, then the compound that gave them:

Inhibition constant [4]: 0.06 µM
Inhibition constant [5]: 0.08 µM
Inhibition constant [6]: 3.5 µM
Inhibition constant [7]: 0.08 µM and 0.07 µM
Inhibition constant [8]: 3 µM
SMILES: CCSc1nc2c(N)ncnc2n1C1O[C@H](COP(=O)(O)OP(=O)(O)OP(=O)(O)OP(=O)(O)OP(=O)(O)OC[C@H]2OC(n3cnc4c(N)ncnc43)[C@H](O)[C@@H]2O)[C@@H](O)[C@H]1O (some centres not stated)

Inhibition constant [9]: 0.28 µM
Inhibition constant [6]: 0.26 µM
Inhibition constant [10]: 0.3 µM
Inhibition constant [7]: 0.3 µM
Inhibition constant [8]: 0.26 µM
SMILES: Nc1ncnc2c1ncn2[C@@H]1O[C@H](COP(=O)(O)OP(=O)(O)OP(=O)(O)OP(=O)(O)OP(=O)(O)OC[C@H]2O[C@@H](n3cnc4c(N)ncnc43)[C@H](O)[C@@H]2O)[C@@H](O)[C@H]1O

pKi [11]: 2.40
pKi [2]: 3.49
SMILES: Nc1ncnc2c1nc(Sc1ccccc1)n2[C@@H]1O[C@H](COP(=O)(O)OP(=O)(O)OP(=O)(O)O)[C@@H](O)[C@H]1O

pKi [11]: 2.22
pKi [12]: 2.21
SMILES: O=C(CI)NCCCCCNc1ncnc2c1ncn2C1O[C@H](COP(=O)(O)OP(=O)(O)OP(=O)(O)O)[C@@H](O)[C@H]1O (some centres not stated)

pKi [11]: 1.89
pKi [2]: 2.32
SMILES: CC(=O)NCCCCCCNc1ncnc2c1ncn2C1O[C@H](COP(=O)(O)OP(=O)(O)OP(=O)(O)O)[C@@H](O)[C@H]1O (some centres not stated)
